Results reported in US20160271063A1, “STERILE S-ADENOSYL METHIONINE WITH A HIGH CONTENT OF ACTIVE ISOMER FOR INJECTABLE SOLUTIONS, AND PROCEDURE FOR OBTAINING IT” (GNOSIS S.P.A., priority 2013, published 2016).
“Also recorded” adds a separate entry of the source.

How the values were obtained:
[1] = S,S isomer content by HPLC (area of active isomer to sum of both isomers); type: physicochemical; details: for S,S Stereoisomer %: Test in Mobile Minor unit, IN/OUT temperature differs per test; for enantiomeric excess of S,S isomer: sterile spray-dried product
Procedure: The S-adenosyl methionine of the invention preferably has a water content below 2% by weight and an active enantiomer content exceeding 75% of the total SAMe. The enantiomer content is determined by the percentage of the area of active isomer to the sum of the area of both isomers in the HPLC analysis.

[2] = Residual humidity of the powder; type: physicochemical; details: for Humidity %: Test in Mobile Minor unit, IN/OUT temperature differs per test
[3] = sterile spray-dried product
[4] = Particle size (laser particle-size distribution analysis); type: physicochemical; details: for Particle size D50μ: Test in Mobile Minor unit, IN/OUT temperature differs per test
[5] = BET surface area; type: physicochemical
[6] = Microscope appearance of particles; type: physicochemical
[7] = Stability of SAMe salt solutions; type: physicochemical
[8] = Table 2, comparison with the medicament on the market
[9] = spray-dried, TIN 150° C., TOUT 95-96° C.

Structure (SMILES)	S,S Stereoisomer % [1] [%]	enantiomeric excess of S,S isomer [1]	Humidity % [2] [%]	endotoxin level [3]	Particle size D50μ [4] [μ]	other results
C[S+](CC[C@H](N)C(=O)[O-])C[C@H]1O[C@@H](n2cnc3c(N)ncnc32)[C@H](O)[C@@H]1O.O=S(=O)(O)CCCCS(=O)(=O)O (single isomer, unassigned) [Example 3, SAMe 1,4-butanedisulphonate]	75.65	exceeding 80%	1.63	less than 0.118 U/g	9	–
C[S+](CC[C@H](N)C(=O)[O-])C[C@H]1O[C@@H](n2cnc3c(N)ncnc32)[C@H](O)[C@@H]1O.O=S(=O)(O)CCCCS(=O)(=O)O (single isomer, unassigned) [Example 4, SAMe 1,4-butanedisulphonate]	72.60	exceeding 80%	1.63	less than 0.118 U/g	8	–
C[S+](CC[C@H](N)C(=O)[O-])C[C@H]1O[C@@H](n2cnc3c(N)ncnc32)[C@H](O)[C@@H]1O.O=S(=O)(O)CCCCS(=O)(=O)O (single isomer, unassigned) [Example 5, SAMe 1,4-butanedisulphonate]	76.63	–	1.88	–	9	BET surface area (m2/g) [5]: 0.3460 m2/g; SS isomer (%) [1, 8]: 73.1%; Humidity [2, 8]: 1.20%; Microscope [6]: Regular,; also recorded: spherical particles; Laser particle-size distribution analysis, 10% ([4]; 10%): 10% = 14.4 micron; Laser particle-size distribution analysis, 50% ([4]; 50%): 50% = 28.7 micron; Laser particle-size distribution analysis, 90% ([4]; 90%): 90% = 53.8 micron
C[S+](CC[C@H](N)C(=O)[O-])C[C@H]1O[C@@H](n2cnc3c(N)ncnc32)[C@H](O)[C@@H]1O.O=S(=O)(O)CCCCS(=O)(=O)O (single isomer, unassigned) [Example 7, SAMe 1,4-butanedisulphonate, reference compound]	75.95	–	2.65	–	10	enantiomeric ratio, S,S isomer [1]: 70%
C[S+](CC[C@H](N)C(=O)[O-])C[C@H]1O[C@@H](n2cnc3c(N)ncnc32)[C@H](O)[C@@H]1O.O=S(=O)(O)CCCCS(=O)(=O)O (some centres unmarked) [Example 1, SAMe 1,4-butanedisulphonate]	–	–	–	–	–	stereoisomeric ratio [1, 9]: 73.77%; residual humidity [2, 9]: 1.50%; particle size D50 [4, 9]: 10 microns
C[S+](CC[C@H](N)C(=O)[O-])C[C@H]1O[C@@H](n2cnc3c(N)ncnc32)[C@H](O)[C@@H]1O (some centres unmarked) [SAMe SD4, S-adenosyl methionine]	–	–	–	–	–	stability of the solution ([7]; at ambient temperature): break down rapidly; stability of the solution ([7]; stored at a cold temperature, unless microbial contamination is present): stable
